Measured values from patent US5283243A, “Piperidinoalkylbenzoxazine and piperidinoalkylbenzothiazine compounds, and medicaments containing them” (Kali-Chemie Pharma GmbH, priority 1990, dated 1994).

Legend:
[1] = tested on: Passive cutaneous anaphylaxis (PCA); test: Inhibition of passive cutaneous anaphylaxis (PCA); format: in vivo, Sprague-Dawley rats; conditions: Rattus norvegicus, 1 h; rats, 2 × 10^-5 mole/kg dose per os, one hour before ovalbumin challenge; read-out: % inhibition of Passive cutaneous anaphylaxis (PCA)
Method: (§1) 1. Determining Inhibition of Passive Cutaneous Anaphylaxis (PCA) and Histamine-Induced Anaphylactoid Cutaneous Reaction
The PCA reaction is carried out following the methods described by Goose et al. (J.N. Immunology 16 (1969), 749) and by Martin et al. (Arch. Pharmacol. 316 (1981), 186).
The IgE-rich ovalbumin antiserum used in the test was obtained from immunized Brown-Norway rats. The were immunized with an intraperitoneal injection of a mixture of 100 μg of ovalbumin with a Bordetella pertussis suspension (Vaxicoq™, Manufactured by Institute Merieux, containing 5×10^9 organisms and 1.25 mg Al(OH)3). After 20 days the animals were re-immunized with a further intraperitoneal injection of a solution of 10 μg ovalbumin in 0.5 ml physiological saline solution. After a further four days the blood was removed from the animals and centrifuged. The resulting antiserum was stored at -20° C. until use.
(§2) The inhibition of the passive cutaneous anaphylaxis and of the anaphylactoid cutaneous reaction induced by histamine was determined as follows:
Sprague-Dawley rats having a body weight of 150-180 g were injected intradermally in one flank with 50 μl of a 1:75 dilution of the IgE-rich ovalbumin antiserum in physiological saline solution to passively sensitize them to ovalbumin.
24 hours after sensitization a solution of 8.25 mg/kg of ovalbumin and 26.4 mg/kg of a blue dye (Evans's Blue) was administered to the rats intravenously according to Martin et al. to trigger passive cutaneous anaphylaxis.
(§3) On the day of the experiment the test substances were dissolved in distilled water which contained 1 vol. % dimethylformamide and 1 vol. % of Tween™ 20 (=polyoxyethylene (20) sorbitan monolaurate). One hour before administration of the ovalbumin challenge, each animal was orally administered 2×10^-5 mole/kg of test substance in 0.5 ml of solution. For comparison purposes a control group received only the solvent.
(§4) The edematous anaphylactic (PCA) and anaphylactoid (histamine-induced) reactions caused by the stimulation of the intravenous ovalbumin injection, which manifested themselves by edema formation, swelling and exudation of blue dye, were evaluated 30 minutes after their initiation by the intravenous ovalbumin injection. This was done by visually determining the extent to which the blue dye emerged at the sites of edema formation. The percentage inhibition of anaphylactic and anaphylactoid reactions induced by the test substances in comparison with the reactions of the control animals not treated with any test substance was determined using comparison scales.
(§5) The results obtained using compounds of formula I according to the foregoing test methods are shown in the following Table A. The example numbers given for the compounds of formula I relate to the subsequent preparative examples.

[2] = tested on: 5-lipoxygenase (LTC4 release); test: 5-Lipoxygenase inhibition: LTC4 release from zymosan-stimulated mouse peritoneal macrophage cells; format: cell-based; conditions: Peritoneal macrophage cell; zymosan-stimulated mouse peritoneal macrophage cells, 10^-5 mole/l; read-out: In vitro % inhibition upon release of LTC4
From the text: 5. In vitro Determination of Cyclooxygenase Inhibition and 5-Lipoxygenase Inhibition
After a cell is activated, arachidonic acid contained in cell membranes is metabolized in two ways. Leucotrienes, inter alia leucotriene C4, are formed due to the action of the enzyme 5-lipoxyqenase (=5-LO), and prostanoids are formed due to the action of the enzyme cyclooxygenase (=CO). In in vitro systems these metabolites are secreted from the cell.
To evaluate the cyclooxygenase-inhibiting and 5-lipoxygenase-inhibiting properties of the test substances, their inhibitory activity on the biosynthesis of the arachidonic acid derivatives leucotriene C4 (=LTC4) and 6-keto-prostaglandin F1α (=6-keto-PGF1 α) was determined in vitro on mouse peritoneal macrophage cells. For this purpose the LTC4 and 6-keto-PGF1 α contents of a mouse peritoneal macrophage cell culture medium were determined by zymosan stimulation as described by Scott et al. (J. Exp. Med. 152 (1980), 324-335) and by Fradin et al., (Prostaglandins, 33 (1987), 579-589).
A cell suspension containing peritoneal cells from male mice 8-10 weeks old was obtained in a known manner. A solution marketed under the designation RPMI 1640 (Manufactured by Gibco) was used as the cell culture medium, to which heparin (10 international units/ml) and antibiotics were added according to the procedure of Bonney et al. (Biochem. J. 176 (1978) 422-433). The cell suspension was adjusted to a cell concentration of 10^6 cells per ml and distributed uniformly on titer dishes containing 24 1-ml titer cells (wells). These were kept for two hours in a humidified incubator filled with air enriched with 7% CO2. Cells not adhering to the titer well walls were then removed by washing. The remaining macrophage cells adhering to the walls were incubated for about 12 hours in a suspension medium to which 0.1% of bovine serum albumin (BSA=Bovine Serum Albumin) was added. The suspension medium was then replaced by a Hanks salt solution (=Hanks Balanced Salt Solution=HBSS) with 10 mmoles of Hepes (=hydroxyethylpiperazinoethanesulfonic acid) to which a 0.1% strength solution of the test substances in aqueous, 1% strength dimethylformamide or only the solvent had been added. After 15 minutes the arachidonic acid metabolism was stimulated by adding […] of zymosan (=glycoprotein mixture isolated from cell walls of beer yeast, Saccharomyces cerevisiae, Manufactured by Sigma Chemical Co., Munich) per titre cell. After 2 hours samples of the respective supernatant liquid in each cell were examined for their 6-keto-PGF1α and LTC4 contents by an enzyme immunoassay (=EIA). This EIA is carried out following the method of Pradelles et al. (Analytical Chem. 57 (1985), 1170-1173). The determination of LTC4 and the determination of 6-keto-PGF1α were each carried out on suitable dilutions of the samples (1:50 to 1:250 for the LTC4 determination and 1:250 to 1:1,250 for the 6-keto-PGF1α determination) in comparison with a comparative scale. To determine the inhibiting effect of a 10^-5 molar concentration of the compounds, the amounts of reference eicosanoid were determined, and the inhibiting effect was calculated therefrom in % inhibition compared to the measurements of the zymosan controls.

[3] = tested on: Histamine-induced anaphylactoid reaction; test: Inhibition of histamine-induced anaphylactoid cutaneous reaction; format: in vivo, Sprague-Dawley rats; conditions: Rattus norvegicus, 1 h; rats, 2 × 10^-5 mole/kg dose per os, one hour before challenge; read-out: % inhibition of Histamine-induced anaphylactoid reaction
Method: as §1, §2
To determine the histamine-induced anaphylactoid skin reaction, the animals are injected intradermally in the flank opposite to the antiserum administration with 50 μl of a physiological saline solution containing 0.8 mg/ml histamine directly before the intravenous injection of the solution containing the ovalbumin and the blue dye.
as §3, §4, §5

O=C1Nc2ccccc2SC1CCCN1CCC(Nc2nc3ccccc3n2Cc2ccc(F)cc2)CC1 (stereo not drawn) [Example 8]
inhibition in vivo at 20 µmol/kg [1]: 100% | inhibition at 10 µM [2]: 40% | inhibition in vivo at 20 µmol/kg [3]: 100%
